System: healthy subjects
Assay: Phase 1 healthy volunteer study, single oral dose: treatment-emergent adverse events
Assay type: in vivo, human
Details: 10 mg
Description: A Phase 1 randomized, double-blind, placebo-controlled study to evaluate the effect of psilocybin on cognitive and emotional processing as compared to placebo in healthy volunteers was conducted. The study investigated the short-term (Day 7) and long-term (Day 28) effects of moderate (10 mg) and high doses (25 mg) of psilocybin on key domains of cognition, such as episodic memory, attention, working and spatial memory, social cognition and elements of executive function, including cognitive flexibility.
90 healthy subjects were studied. Approximately 50% of the subjects were psilocybin-naïve. For subjects with prior psilocybin experience, the last exposure was at least 1 year prior to the signing of the Informed Consent Form (ICF). Approximately 50% of the subjects were female. Subjects were stratified by sex and age (18-35 years old; >35 years old).
Each subject was assigned 1 treatment bottle containing 5 capsules packaged in a double-blind fashion, depending on the randomized treatment arm, the bottle contained one of the following: • a. Psilocybin 10 mg: 2×5-mg oral psilocybin capsules plus 3× placebo capsules • b. Psilocybin 25 mg: 5×5-mg oral psilocybin capsules • c. Placebo: 5× placebo capsules
Each 5-mg oral psilocybin capsule comprised 5 mg crystalline psilocybin in the form of Polymorph A, 12.5 mg of SMCC 50, 79.5 mg of SMCC 90, 1 mg sodium starch glycolate, 1 mg colloidal silicon dioxide, and 1 mg sodium stearyl fumarate
Adverse events: Throughout the course of the study, all AEs were monitored and recorded. Each AE was classified according to the following criteria: • i. […] Moderate: The AE produces some impairment of functioning, but is not hazardous to the subject's health. • iii. Severe: The AE produces significant impairment of functioning or incapacitation and is a definite hazard to the subject's health.
Selected Adverse Events of included: • (a) Euphoric mood • (b) Dissociative disorder • (c) Hallucination • (d) Psychotic disorder • (e) Cognitive disorder • (f) Disturbance in attention • (g) Altered mood • (h) Impairment of psychomotor skills • (i) Inappropriate affect • (j) Overdose • (k) Intentional product misuse • (l) Illusion
For example, drug-induced hepatitis that resolved without evidence of hepatic failure would not be considered life threatening even though drug-induced hepatitis can be fatal. • (c) Inpatient hospitalization or prolongation of existing hospitalization. • (d) Persistent or significant disability/incapacity. • (e) Congenital anomaly/birth defect in the offspring of a subject who received psilocybin. • (f) Other: Important medical events that may not result in death, be life-threatening, or require hospitalization, may be considered an SAE when, based upon appropriate medical judgment, they may jeopardize the subject and may require medical or surgical intervention to prevent one of the outcomes listed in this definition. […] Visits:
Visit 3 (V3): Drug Administration (Day 0): The subject was asked to eat a light breakfast at least two hours prior to coming to the clinic for study drug administration. On Day 0 (V3), the subject underwent the SSTS, had vital signs obtained, medications reviewed, AEs recorded and eligibility reviewed prior to being randomized to study drug. The study drug was administered to up to six subjects simultaneously in individual beds separated by a curtain. The subject was invited to put on eyeshades and headphones, lie down and listen to calming music for the rest of the session (six hours). The subject was supported 1:1 with a chaperone and supervised by the study psychiatrist and lead therapist.
Recording of adverse events and prior/concomitant medication was performed at each visit.
During administration of psilocybin, each subject received one on one support from a trained assisting therapist and each dosing session was supervised by a study psychiatrist and a lead therapist. […]

CN(C)CCc1c[nH]c2cccc(OP(=O)(O)O)c12 [psilocybin]
AEs potentially related to study treatment, % of AEs in arm: 92.6% | Affect lability, worst severity Mild: Events: 3 | Affect lability, worst severity Mild: N (%): 3 (10.0) | Affect lability, worst severity Moderate: Events: 2 | Affect lability, worst severity Severe: Events: 0 | Affect lability, worst severity Severe: N (%): 0 | Affect lability: Events: 5 | Any Selected TEAE: % of subjects: (90.0) % | Any Selected TEAE: N (%): 27 | Any TEAE leading to death: Events: 0 | Any TEAE leading to death: N (%): 0 | Any TEAE leading to study discontinuation: Events: 0 | Any TEAE leading to study discontinuation: N (%): 0 | Any TEAE related to study treatment: % of subjects: (96.7) % | Any TEAE related to study treatment: N (%): 29 | Any TEAE, worst severity Mild: Events: 12 | Any TEAE, worst severity Mild: N (%): 6 (20.0) | Any TEAE, worst severity Moderate: Events: 38 | Any TEAE, worst severity Severe: Events: 22 | Any TEAE: % of subjects: 96.7% | Any serious TEAE related to study treatment: Events: 0 | Any serious TEAE related to study treatment: N (%): 0 | Any serious TEAE: Events: 0 | Any serious TEAE: N (%): 0 | Any severe TEAE: % of subjects: (33.3) % | Any severe TEAE: Events: 22 | Any severe TEAE: N (%): 10 | Emotional disorder, worst severity Mild: Events: 1 | Emotional disorder, worst severity Moderate: Events: 1 | Emotional disorder, worst severity Severe: Events: 0 | Emotional disorder, worst severity Severe: N (%): 0 | Emotional disorder: Events: 2 | Euphoric mood, worst severity Mild: Events: 0 | Euphoric mood, worst severity Mild: N (%): 0 | Euphoric mood, worst severity Moderate: Events: 6 | Euphoric mood, worst severity Moderate: N (%): 6 (20.0) | Euphoric mood, worst severity Severe: Events: 1 | Euphoric mood: Events: 7 | Fatigue, worst severity Mild: Events: 6 | Fatigue, worst severity Mild: N (%): 6 (20.0) | Fatigue, worst severity Moderate: Events: 3 | Fatigue, worst severity Severe: Events: 1 | Fatigue: Events: 10 | Fatigue: N (%): 9 (30.0) | Feeling abnormal, worst severity Mild: Events: 3 | Feeling abnormal, worst severity Mild: N (%): 3 (10.0) | Feeling abnormal, worst severity Moderate: Events: 1 | Feeling abnormal, worst severity Severe: Events: 0 | Feeling abnormal, worst severity Severe: N (%): 0 | Feeling abnormal: Events: 4 | Feeling of relaxation: Events: 5 | Feeling of relaxation: N (%): 3 (10.0) | Gastrointestinal disorders, worst severity Mild: Events: 3 | Gastrointestinal disorders, worst severity Mild: N (%): 3 (10.0) | Gastrointestinal disorders, worst severity Moderate: Events: 1 | Gastrointestinal disorders, worst severity Severe: Events: 0 | Gastrointestinal disorders, worst severity Severe: N (%): 0 | Gastrointestinal disorders: Events: 4 | General disorders and administration site conditions, worst severity Mild: Events: 17 | General disorders and administration site conditions, worst severity Moderate: Events: 6 | General disorders and administration site conditions, worst severity Moderate: N (%): 3 (10.0) | General disorders and administration site conditions, worst severity Severe: Events: 1 | General disorders and administration site conditions: Events: 27 | Hallucination, auditory, worst severity Mild: Events: 1 | Hallucination, auditory, worst severity Moderate: Events: 1 | Hallucination, auditory, worst severity Severe: Events: 2 | Hallucination, auditory: Events: 4 | Hallucination, tactile: Events: 2 | Hallucination, visual, worst severity Mild: Events: 3 | Hallucination, visual, worst severity Mild: N (%): 3 (10.0) | Hallucination, visual, worst severity Moderate: Events: 8 | Hallucination, visual, worst severity Severe: Events: 7 | Hallucination, visual: Events: 20 | Hallucination, worst severity Mild: Events: 0 | Hallucination, worst severity Mild: N (%): 0 | Hallucination, worst severity Moderate: Events: 3 | Hallucination, worst severity Moderate: N (%): 3 (10.0) | Hallucination, worst severity Severe: Events: 0 | Hallucination, worst severity Severe: N (%): 0 | Hallucination: Events: 3 | Hallucination: N (%): 3 (10.0) | Headache, worst severity Mild: Events: 12 | Headache, worst severity Mild: N (%): 9 (30.0) | Headache, worst severity Moderate: Events: 0 | Headache, worst severity Moderate: N (%): 0 | Headache, worst severity Severe: Events: 0 | Headache, worst severity Severe: N (%): 0 | Headache: Events: 12 | Headache: N (%): 9 (30.0) | Hypoaesthesia, worst severity Mild: Events: 2 | Hypoaesthesia, worst severity Moderate: Events: 0 | Hypoaesthesia, worst severity Moderate: N (%): 0 | Hypoaesthesia, worst severity Severe: Events: 0 | Hypoaesthesia, worst severity Severe: N (%): 0 | Hypoaesthesia: Events: 2 | Illusion, worst severity Mild: Events: 7 | Illusion, worst severity Moderate: Events: 6 | Illusion, worst severity Severe: Events: 0 | Illusion, worst severity Severe: N (%): 0 | Illusion: Events: 25 | Infections and infestations, worst severity Mild: Events: 2 | Infections and infestations, worst severity Moderate: Events: 2 | Infections and infestations, worst severity Severe: Events: 0
